Experimental data from PubChem BioAssay AID463203 (Broad Institute, 2010).
Calls of active or inactive are those of the source.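 How the source made its calls: active means more than half of replicate measurements showing over 20% loss of kinase signal relative to plate controls; inconclusive means some but at most half of replicates over 20% loss; inactive means no replicate over 20% signal loss.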

target: Glycogen synthase kinase-3 alpha (Homo sapiens) (UniProt P49840); experiment: concentration-response blocking of human GSK3A – biochemical, luminescence, cell-free homogeneous, retest, dose response (AID 463203); conditions: GSK-3 alpha enzyme, ADP-Glo luminescence, 60 min
Sequence (P49840 whole entry, looked up): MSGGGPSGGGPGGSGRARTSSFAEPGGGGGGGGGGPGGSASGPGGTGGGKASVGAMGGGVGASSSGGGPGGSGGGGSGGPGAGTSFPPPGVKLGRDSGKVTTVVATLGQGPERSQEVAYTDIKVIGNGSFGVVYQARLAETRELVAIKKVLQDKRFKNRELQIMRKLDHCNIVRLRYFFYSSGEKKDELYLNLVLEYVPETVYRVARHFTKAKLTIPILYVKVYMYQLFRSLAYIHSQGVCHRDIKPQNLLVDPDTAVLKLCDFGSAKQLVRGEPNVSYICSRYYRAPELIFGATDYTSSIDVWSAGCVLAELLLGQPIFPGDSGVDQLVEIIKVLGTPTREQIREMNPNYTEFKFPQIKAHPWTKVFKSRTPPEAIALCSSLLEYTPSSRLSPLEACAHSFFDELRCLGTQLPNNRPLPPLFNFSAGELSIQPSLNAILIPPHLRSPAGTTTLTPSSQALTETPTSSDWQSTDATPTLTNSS

Compound	AC50
COc1ccc(CNc2ccc3cn[nH]c3c2)c(OC)c1OC	19.8 µM
CCOC(=O)c1c(NC(=O)CN2C(=O)NC3(CCCCC3C)C2=O)sc(C(=O)N(C)C)c1C (stereo unspecified)	> 30 µM (inactive)
CCOC(=O)c1c(NC(=O)CSc2nnc(CNc3ccc(C)cc3C)o2)sc(C)c1C	> 30 µM (inactive)
COc1c(C)cc(Br)cc1C(=O)Nc1cccc(NC(=O)c2ccco2)c1	> 30 µM (inactive)
CCCC(=O)Nc1nn(CC)c2nc3ccc(C)cc3cc12	> 30 µM (inactive)
Cc1cccc(NC(=O)c2sc3nc4c(c(-c5cccs5)c3c2N)CN(C)CC4)c1	> 30 µM (inactive)
CN(Cc1nc2c(s1)CCCC2)C(=O)CCc1nnc(-c2ccccc2)o1	> 30 µM (inactive)
CC(=O)Nc1cccc(-c2csc(N)n2)c1	> 30 µM (inactive)
Cc1cc(=O)[nH]c(SCC(=O)O)c1C#N	> 30 µM (inactive)
C[C@H](CO)N1C[C@H](C)[C@@H](CN(C)S(=O)(=O)c2ccccc2)Oc2c(NS(=O)(=O)c3ccc(F)cc3)cccc2C1=O	> 30 µM (inactive)
C/C(CC(=O)Nc1ccc(Cl)cc1Cl)=N\NC(=O)C(=O)N1CCCC1	> 30 µM (inactive)
CCN=C(NC#N)SCc1c(F)cccc1Cl	> 30 µM (inactive)
COc1cccc(C(C[N+](=O)[O-])c2c(C)[nH]n(-c3ccccc3)c2=O)c1 (stereo unspecified)	> 30 µM (inactive)
c1ccc2[nH]c(C3CC3)nc2c1	> 30 µM (inactive)
Cc1cccc(OCC(=O)NNC(=O)c2cc3ccccc3oc2=O)c1	> 30 µM (inactive)
COc1ccc2[nH]c(=O)c3c(c2c1)OC(C)(C)C=C3	10.4 µM
Cc1ccc(N=C2NC(=O)/C(=C\c3ccc(C)s3)S2)cc1	> 30 µM (inactive)
N#Cc1cnn2c3c(cnc12)C(=O)N1CCc2ccccc2C1C3 (stereo unspecified)	> 30 µM (inactive)
CC1CCCCC12NC(=O)N(CC(=O)Nc1sccc1C(N)=O)C2=O (stereo unspecified)	> 30 µM (inactive)
CC(C)(C)c1ccc(CSc2nnc(-c3ccccc3NC(=O)c3ccccc3)o2)cc1	> 30 µM (inactive)
COc1cccc(/C=N/Nc2ccc([N+](=O)[O-])cn2)c1O	> 30 µM (inactive)

Compound	AC50
O=C(Nc1ccccc1)c1cc(-n2cnnc2)ccc1Cl	> 30 µM (inactive)
CC(=NCCCn1ccnc1)c1c(O)n(C2CCCCC2)c(=O)[nH]c1=O	6.77 µM
O=c1c(OC2OC(CO)C(O)C(O)C2O)c(-c2ccc(O)c(O)c2)oc2cc(O)cc(O)c12 (stereo unspecified)	> 30 µM (inactive)
O=C(CSc1nc2[nH]ncc2c(=O)n1-c1ccccc1)NCCc1ccccc1	8.62 µM
CN(C)C(=O)Oc1ccc([N+](=O)[O-])cc1	> 30 µM (inactive)
CCN(C(=O)C1CCCN1S(=O)(=O)c1cccc2nsnc12)c1ccccc1 (stereo unspecified)	23.9 µM
O=C(c1ccco1)N(Cc1cccc([N+](=O)[O-])c1)c1ccc(Br)cc1	> 30 µM (inactive)
COc1ccc(C(=O)NNC(=O)c2ccccn2)cc1	11.8 µM
COc1ccc2[nH]c(-c3ccc(C)cc3)cc(=O)c2c1	> 30 µM (inactive)
Cc1ccc(-c2nnc(N3CCN(C(=O)COc4cccc(C)c4)CC3)c3ccccc23)cc1	> 30 µM (inactive)
COc1ccc(NC(=O)CN(C)C2CCCCC2)c([N+](=O)[O-])c1	> 30 µM (inactive)
Cc1ccc(OCC(=O)N2CCN(c3nnc(-c4ccc(C)cc4)c4ccccc34)CC2)cc1	> 30 µM (inactive)
NS(=O)(=O)c1ccc(N=Nc2ccc(=O)[nH]c2O)cc1	6.56 µM
COc1cc2c(cc1OC)C(C)N(C(=O)Cn1ncc3c1-c1cc(C)ccc1OC3)CC2 (stereo unspecified)	> 30 µM (inactive)
O=Nc1c(-c2c(O)[nH]c3cc(Br)ccc23)[nH]c2ccccc12	< 0.0135 µM
CN1/C(=C/C(=O)C2CC2)C(C)(C)c2ccccc21	> 30 µM (inactive)
CCc1ccc(/C=N/NC(=O)c2nnn(-c3nonc3N)c2C(C)C)cc1	> 30 µM (inactive)
CCOC(=O)C1=C(c2ccccc2)Nc2ncnn2C1c1cccc(O)c1 (stereo unspecified)	22.9 µM
c1ccc(N2CCN(c3cnc4ccccc4n3)CC2)cc1	> 30 µM (inactive)
COc1ccc(N=Nc2c(C)n[nH]c2C)cc1	> 30 µM (inactive)
